According to US20250107543A1, “TREATMENT OF AGRICULTURAL, FOOD AND RELATED PRODUCTS FOR ELIMINATING CONTAMINANTS AND ENCHANCING SHELF-LIFE” (priority 2022, published 2025):

Assays:
[1] = C17H12O6 content of treated corn
Experimental: The data presented in Table-4 illustrates the efficiency of the system of the present disclosure in detoxifying pre-conditioned contaminated corn.
Three sets of C17H12O6 contaminated 70 kg's of corn were separately decontaminated in the system of the present disclosure. In this case, corn samples were pre-conditioned with a pre-conditioning liquid and exposed to trioxygen gas for up to 5 minutes. The products were put under pressure of trioxygen gas for a span of 9 minutes to 26 minutes. Based on the commodity characteristics, the exposure of trioxygen gas was repeated 20 times. Trioxygen gas having capacity 500 g/h was generated by the trioxygen generator of the system (on site) with a constant oxygen flow rate and delivered to the decontamination chamber through silicon tube. All 3 sets of products were air dried and then analyzed for the presence of the contaminant and the results obtained are summarized in Table-4

[2] = Pesticide residue in treated whole red chilli: Azoxystrobin; conditions: whole red chilli 12 kg's, Trial 1; HOCL and Trioxygen simultaneously
Excerpt: This experiment illustrates the treatment of whole red chilli contaminated with pesticide residues.
The data presented in Table-6 illustrates the efficacy of the present disclosure in detoxifying contaminated whole red chillies. Sets of whole red chillies of 12 kg's contaminated with pesticides like Azoxystrobin, Imidacloprid Novaluron and Myclobutanil were used for the experiment. An inert gas (Nitrogen & Carbon-di-oxide) were introduced into the chamber filled with the material to drive out existing air and oxygen in the chamber. Pre-conditioning was carried out with HOCL and trioxygen being introduced simultaneously in decontamination chamber with faster decontamination process in the system with a shorter timeline protocol.
(§1) The red chillies were exposed with HOCL and Trioxygen simultaneously for 2 minutes. The products were put under pressure of 2 bar of trioxygen gas for a span of 9 minutes to 26 minutes. Based on the commodity characteristics, the exposure of trioxygen gas was repeated 10 times. Trioxygen gas having a capacity 500 g/h was generated by the trioxygen generator (on site) of the system with a constant oxygen flow rate and delivered to the decontamination chamber through silicon tube. The whole red chillies were then treated to heated air.

[3] = C17H12O6 content of treated whole red chilli; conditions: whole red chilli 12 kg's
Experimental: (§2) This experiment illustrates the treatment of aerobic micro-organisms, yeast, mould, coliform, E. coli, Salmonella and fat soluble metabolites contaminated whole red chilli.
(§3) The data presented in Table-2 illustrate the efficacy of the present disclosure in detoxifying contaminated whole red chillies. […].
as §1, with “with” for “with HOCL and”, “Trioxygen” for “Trioxygen simultaneously”, “pressure” for “pressure of 2 bar”

Salmonella = Salmonella presence in treated whole red chilli; conditions: whole red chilli 12 kg's, Trial 1
Experimental: as §2, §3
as §1, with “with” for “with HOCL and”, “Trioxygen” for “Trioxygen simultaneously”, “pressure” for “pressure of 2 bar”

weevils and weevil eggs [4] = test: Shelf-Life Assessment of Rice; parameters: key to Visual observation: Pin holes on grain / Visual observation: Powder at the bottom of bag / Weevils/Insects: ✓ Not observed; x Observed; conditions: for Visual observation: Pin holes on grain / Visual observation: Powder at the bottom of bag / Weevils/Insects: Treated sample
Experimental: (§4) The data presented in Table-5 illustrates the efficiency of the system of the present disclosure in pre-conditioning and deactivation of weevils and weevil eggs results in delayed occurrence of insect infestation in grains.
(§5) Grains such as Dry corn, Groundnut, Rice & Wheat were separately pre-conditioned and decontaminated in the system of the present disclosure. Grains were exposed to trioxygen gas for up to 5 minutes. The products were put under pressure of trioxygen gas for a span of 9 minutes to 26 minutes. Trioxygen gas having capacity 500 g/h was generated by the trioxygen generator of the system (on site) with a constant oxygen flow rate and delivered to the decontamination chamber through silicon tube. All products were treated with hot air and then analyzed for the presence of the weevils and weevil eggs the results obtained are summarized in Table-5.

weevils and weevil eggs [5] = test: Shelf-Life Assessment of Groundnut; parameters: key to Visual observation: Powder at the bottom of bag / Weevils/Insects / Visual observation: Pin holes on grain: ✓ Not observed; x Observed; conditions: for Visual observation: Pin holes on grain / Visual observation: Powder at the bottom of bag / Weevils/Insects: Treated sample
Experimental: as §4, §5

aerobic micro-organisms = test: Aerobic/Total Plate Count of whole red chilli after pre-conditioning, trioxygen and heated air; conditions: whole red chilli 12 kg's
Experimental: as §2, §3
as §1, with “with” for “with HOCL and”, “Trioxygen” for “Trioxygen simultaneously”, “pressure” for “pressure of 2 bar”

## O=[O+][O-] [Trioxygen]
[1]; Sr. No. 1, 70 kg's
  C17H12O6, % Reduction: 100%
[1]; Sr. No. 2, 70 kg's
  C17H12O6, % Reduction: 85%
[1]; Sr. No. 3, 70 kg's
  C17H12O6, % Reduction: 100%
[2]
  Azoxystrobin, % Reduction: 62%
[3]; Trial 2
  C17H12O6, % Reduction: 73%
[3]; Trial 3
  C17H12O6, % Reduction: 76%
Salmonella
  Salmonella, % Reduction: 100%
Salmonella; before treatment Present/25 g
  Salmonella, Results After Treatment: Absent/25 g
Weevils and weevil eggs [4]
  No weevil infestation in system treated samples up to: up to 6 months
  Treatment effective in delaying infestation up to: up to 6 months
Weevils and weevil eggs [4]; Post 1.5 Months
  Remarks on Weevils/Insects, Treated: No weevils/insects seen
Weevils and weevil eggs [4]; Post 2 Months
  Remarks on Weevils/Insects, Treated: No weevils/insects seen
Weevils and weevil eggs [4]; Post 3 Months
  Remarks on Weevils/Insects, Treated: No weevils/insects seen
Weevils and weevil eggs [4]; Post 5 Months
  Remarks on Weevils/Insects, Treated: No weevils/insects seen
Weevils and weevil eggs [4]; Post 6 Months
  Remarks on Weevils/Insects, Treated: No weevils/insects seen
Weevils and weevil eggs [4]; Post 7 Months
  Remarks on Weevils/Insects, Treated: black insect alive: insects and 1 black insect
  Remarks on Weevils/Insects, Treated: small cream coloured insects alive: 1 small cream coloured
Weevils and weevil eggs [4]; 1.5 Months
  Visual observation: Pin holes on grain: ✓
  Visual observation: Powder at the bottom of bag: ✓
  Weevils/Insects: ✓
Weevils and weevil eggs [4]; 2 Months
  Visual observation: Pin holes on grain: ✓
  Visual observation: Powder at the bottom of bag: ✓
  Weevils/Insects: ✓
Weevils and weevil eggs [4]; 3 Months
  Visual observation: Pin holes on grain: ✓
  Visual observation: Powder at the bottom of bag: ✓
  Weevils/Insects: ✓
Weevils and weevil eggs [4]; 5 Months
  Visual observation: Pin holes on grain: ✓
  Visual observation: Powder at the bottom of bag: ✓
  Weevils/Insects: ✓
Weevils and weevil eggs [4]; 6 Months
  Visual observation: Pin holes on grain: ✓
  Visual observation: Powder at the bottom of bag: ✓
  Weevils/Insects: ✓
Weevils and weevil eggs [4]; 7 Months
  Visual observation: Pin holes on grain: ✓
  Visual observation: Powder at the bottom of bag: ✓
  Weevils/Insects: x
Weevils and weevil eggs [5]
  No weevil infestation in system treated samples up to: up to 6 months
  Treatment effective in delaying infestation up to: up to 6 months
Weevils and weevil eggs [5]; Post 1.5 Months
  Remarks on Weevils/Insects, Treated: No weevils/insects
Weevils and weevil eggs [5]; Post 2 Months
  Remarks on Weevils/Insects, Treated: No weevils/insects
Weevils and weevil eggs [5]; Post 3 Months
  Remarks on Weevils/Insects, Treated: No weevils/insects
Weevils and weevil eggs [5]; Post 5 Months
  Remarks on Weevils/Insects, Treated: No weevils/insects
Weevils and weevil eggs [5]; Post 6 Months
  Remarks on Weevils/Insects, Treated: No weevils/insects
Weevils and weevil eggs [5]; Post 7 Months
  Remarks on Weevils/Insects, Treated: insect observed alive, buff/cream, 5 mm long: 1 insect observed -
Weevils and weevil eggs [5]; 1.5 Months
  Visual observation: Pin holes on grain: ✓
  Visual observation: Powder at the bottom of bag: ✓
  Weevils/Insects: ✓
Weevils and weevil eggs [5]; 2 Months
  Visual observation: Pin holes on grain: ✓
  Visual observation: Powder at the bottom of bag: ✓
  Weevils/Insects: ✓
Weevils and weevil eggs [5]; 3 Months
  Visual observation: Pin holes on grain: ✓
  Visual observation: Powder at the bottom of bag: ✓
  Weevils/Insects: ✓
Weevils and weevil eggs [5]; 5 Months
  Visual observation: Pin holes on grain: ✓
  Visual observation: Powder at the bottom of bag: ✓
  Weevils/Insects: ✓
Weevils and weevil eggs [5]; 6 Months
  Visual observation: Pin holes on grain: ✓
  Visual observation: Powder at the bottom of bag: ✓
  Weevils/Insects: ✓
Weevils and weevil eggs [5]; 7 Months
  Visual observation: Pin holes on grain: ✓
  Visual observation: Powder at the bottom of bag: ✓
  Weevils/Insects: x
Weevils and weevil eggs [5]; at month 7
  Number of weevils in treated sample, times less than that in control sample: 3 times
Aerobic micro-organisms; Trial 1
  Aerobic Plate Count, % Reduction: 97%
Aerobic micro-organisms; Trial 1, before treatment 9.82 × 10^8 cfu/g
  Aerobic Plate Count, Results After Treatment: 3.0 × 10^7 cfu/g
Aerobic micro-organisms; Trial 2
  Total Plate Count, % Reduction: 80%
Aerobic micro-organisms; Trial 2, before treatment 1.85 × 10^8 cfu/g
  Total Plate Count, Results After Treatment: 3.72 × 10^7 cfu/g
Aerobic micro-organisms; Trial 3
  Total Plate Count, % Reduction: 97%
Aerobic micro-organisms; Trial 3, before treatment 2.4 × 10^7 cfu/g
  Total Plate Count, Results After Treatment: 8.36 × 10^5 cfu/g
